# Results reported in patent US5348946A, “Heteroanthracycline antitumor analogs” (Biochem Immunosystems, Inc., priority 1991, dated 1994).
# Assays:
# 59 tumor cell lines = experiment: in vitro cytotoxicity evaluation, whole panel; type: cell-based, human
# Method: (§1) These assays were carried out at the Developmental Therapeutics Program, Division of Cancer Treatment, National Cancer Institute (Bethesda, Md., USA). The method consists of incubating varying concentrations of the drug with an inoculum of cells for two days.
# (§2) It should be noted that the first two parameters (GI50 and TGI) relate to antiproliferation effects while the third one (LC50) indicates true cytotoxicity.
# HOP-18 = experiment: in vitro cytotoxicity evaluation, Non-Small Cell Lung Cancer; type: cell-based; conditions: Homo sapiens, 48 h, HOP-18, two days, sulforhodamine B
# Method: as §1, §2
# NCI-H226 = experiment: as above; type: cell-based; conditions: Homo sapiens, 48 h, NCI-H226, two days, sulforhodamine B
# Method: as §1, §2
# FKVX = experiment: as above; type: cell-based; conditions: Homo sapiens, 48 h, two days, sulforhodamine B
# Method: as §1, §2
# LXFL-529L = experiment: as above; type: cell-based; conditions: Homo sapiens, 48 h, two days, sulforhodamine B
# Method: as §1, §2
# NCI-H522 = experiment: as above; type: cell-based; conditions: Homo sapiens, 48 h, NCI-H522, two days, sulforhodamine B
# Method: as §1, §2
# NCI-H460 = experiment: as above; type: cell-based; conditions: Homo sapiens, 48 h, NCI-H460, two days, sulforhodamine B
# Method: as §1, §2
# NCI=H322M = experiment: as above; type: cell-based; conditions: Homo sapiens, 48 h, two days, sulforhodamine B
# Method: as §1, §2
# NCI-H23 = experiment: as above; type: cell-based; conditions: Homo sapiens, 48 h, NCI-H23, two days, sulforhodamine B
# Method: as §1, §2
# HI-60TB = experiment: in vitro cytotoxicity evaluation, Leukemia; type: cell-based; conditions: Homo sapiens, 48 h, two days, sulforhodamine B
# MOLT-4 = experiment: in vitro cytotoxicity evaluation, Leukemia; type: cell-based; conditions: Homo sapiens, 48 h, MOLT-4, two days, sulforhodamine B
# Method: as §1, §2
# CCRF-CEM = experiment: in vitro cytotoxicity evaluation, Leukemia; type: cell-based; conditions: Homo sapiens, 48 h, two days, sulforhodamine B
# Method: as §1, §2
# K-562 = experiment: in vitro cytotoxicity evaluation, Leukemia; type: cell-based; conditions: Homo sapiens, K562, 48 h, K-562, two days, sulforhodamine B
# Method: as §1, §2
# RPMI-8226 = experiment: in vitro cytotoxicity evaluation, Leukemia; type: cell-based; conditions: Homo sapiens, 48 h, RPMI-8226, two days, sulforhodamine B
# Method: as §1, §2
# OVCAR-8 = experiment: in vitro cytotoxicity evaluation, Ovarian Cancer; type: cell-based; conditions: Homo sapiens, 48 h, OVCAR-8, two days, sulforhodamine B
# Method: as §1, §2
# IGROV-1 = experiment: in vitro cytotoxicity evaluation, Ovarian Cancer; type: cell-based; conditions: Homo sapiens, 48 h, IGROV-1, two days, sulforhodamine B
# Method: as §1, §2
# OVCAR-5 = experiment: in vitro cytotoxicity evaluation, Ovarian Cancer; type: cell-based; conditions: Homo sapiens, 48 h, OVCAR-5, two days, sulforhodamine B
# Method: as §1, §2
# OVCAR-3 = experiment: in vitro cytotoxicity evaluation, Ovarian Cancer; type: cell-based; conditions: Homo sapiens, 48 h, OVCAR-3, two days, sulforhodamine B
# Method: as §1, §2
# OVCAR-4 = experiment: in vitro cytotoxicity evaluation, Ovarian Cancer; type: cell-based; conditions: Homo sapiens, 48 h, OVCAR-4, two days, sulforhodamine B
# Method: as §1, §2
# SK-OV-3 = experiment: in vitro cytotoxicity evaluation, Ovarian Cancer; type: cell-based; conditions: Homo sapiens, 48 h, SK-OV-3, two days, sulforhodamine B
# Method: as §1, §2
# DLD-1 = experiment: in vitro cytotoxicity evaluation, Colon Cancer; type: cell-based; conditions: Homo sapiens, 48 h, DLD-1, two days, sulforhodamine B
# Method: as §1, §2
# Colo 205 = experiment: in vitro cytotoxicity evaluation, Colon Cancer; type: cell-based; conditions: Homo sapiens, 48 h, Colo 205, two days, sulforhodamine B
# Method: as §1, §2
# [1] = read-out: Log10 LC50 (converted)
# [2] = read-out: LOG10 G150 (GI50) (converted)
# [3] = read-out: Log10 TGI (converted)
smiles,measurement,setting,value
"COc1c2c(c(OC)c3c(=O)c4ccccc4sc13)CS(=O)(=O)[C@@H]2O[C@H]1C[C@H](N)[C@H](O)[C@H](C)O1 [BCH-255, (1S ) 1-daunosamine-4-11-dimethoxy-5-oxo-5-H-1,3-dihydrothioxantheno [2,3-c] thiophene-2,2-dioxide]",DELTA of Log10 TGI,59 tumor cell lines; DELTA over the panel,0.13
same,CC50,"59 tumor cell lines; Homo sapiens, 48 h, MG MID over the panel, read-out: MG MID of Log10 LC50 (converted)",75.9 µM
same,IC (TGI),"59 tumor cell lines; Homo sapiens, 48 h, MG MID over the panel, read-out: MG MID of Log10 TGI (converted)",40.7 µM
same,GI50,"59 tumor cell lines; Homo sapiens, MG MID over the panel, read-out: MG MID of LOG10 G150 (GI50) (converted)",20 µM
same,RANGE of Log10 TGI,59 tumor cell lines; RANGE over the panel,0.52
same,cytotoxicity,59 tumor cell lines; solid tumors and leukemia cell lines,all the cell lines of solid tumors and leukemia showed cytotoxcity to the drug
same,spectrum of antitumor activity,59 tumor cell lines; tumor cell line panel,wide spectrum of antitumor activity
same,GI50,HOP-18; read-out: LOG10 G150 (GI50),> 100 µM
same,CC50,HOP-18; [1],> 100 µM
same,IC (total growth inhibition (TGI)),HOP-18; read-out: Log10 TGI,> 100 µM
same,GI50,NCI-H226; [2],20 µM
same,CC50,NCI-H226; [1],83.2 µM
same,IC (total growth inhibition (TGI)),NCI-H226; [3],40.7 µM
same,GI50,FKVX; [2],25.7 µM
same,CC50,FKVX; [1],93.3 µM
same,IC (total growth inhibition (TGI)),FKVX; [3],49 µM
same,GI50,LXFL-529L; [2],17 µM
same,CC50,LXFL-529L; [1],57.5 µM
same,IC (total growth inhibition (TGI)),LXFL-529L; [3],31.6 µM
same,GI50,NCI-H522; [2],18.6 µM
same,CC50,NCI-H522; [1],77.6 µM
same,IC (total growth inhibition (TGI)),NCI-H522; [3],38 µM
same,GI50,NCI-H460; [2],20.4 µM
same,LC50 (concentration killing 50% of cells),NCI-H460; [1],79.4 µM
same,IC (total growth inhibition (TGI)),NCI-H460; [3],39.8 µM
same,GI50,NCI=H322M; [2],19.1 µM
same,CC50,NCI=H322M; [1],100 µM
same,IC (total growth inhibition (TGI)),NCI=H322M; read-out: Log10 TGI,43.7 µM
same,GI50,NCI-H23; [2],50.1 µM
same,CC50,NCI-H23; [1],> 100 µM
same,IC (total growth inhibition (TGI)),NCI-H23; read-out: Log10 TGI,> 100 µM
same,GI50,HI-60TB; [2],15.8 µM
same,CC50,HI-60TB; [1],69.2 µM
same,IC (total growth inhibition (TGI)),HI-60TB; [3],33.1 µM
same,GI50,MOLT-4; [2],19.1 µM
same,CC50,MOLT-4; [1],87.1 µM
same,IC (total growth inhibition (TGI)),MOLT-4; [3],40.7 µM
same,GI50,CCRF-CEM; [2],17.8 µM
same,CC50,CCRF-CEM; [1],97.7 µM
same,IC (total growth inhibition (TGI)),CCRF-CEM; [3],41.7 µM
same,GI50,K-562; [2],16.2 µM
same,CC50,K-562; [1],83.2 µM
same,IC (total growth inhibition (TGI)),K-562; [3],36.3 µM
same,GI50,RPMI-8226; [2],16.2 µM
same,CC50,RPMI-8226; [1],> 100 µM
same,IC (total growth inhibition (TGI)),RPMI-8226; [3],40.7 µM
same,GI50,OVCAR-8; [2],19.5 µM
same,CC50,OVCAR-8; [1],74.1 µM
same,IC (total growth inhibition (TGI)),OVCAR-8; [3],38 µM
same,GI50,IGROV-1; [2],16.6 µM
same,CC50,IGROV-1; [1],87.1 µM
same,IC (total growth inhibition (TGI)),IGROV-1; [3],38 µM
same,GI50,OVCAR-5; [2],39.8 µM
same,CC50,OVCAR-5; [1],> 100 µM
same,IC (total growth inhibition (TGI)),OVCAR-5; read-out: Log10 TGI,> 100 µM
same,GI50,OVCAR-3; [2],15.5 µM
same,CC50,OVCAR-3; [1],64.6 µM
same,IC (total growth inhibition (TGI)),OVCAR-3; [3],31.6 µM
same,GI50,OVCAR-4; [2],18.2 µM
same,CC50,OVCAR-4; [1],64.6 µM
same,IC (total growth inhibition (TGI)),OVCAR-4; [3],34.7 µM
same,GI50,SK-OV-3; [2],19.1 µM
same,CC50,SK-OV-3; [1],85.1 µM
same,IC (total growth inhibition (TGI)),SK-OV-3; [3],40.7 µM
same,GI50,DLD-1; [2],24.5 µM
same,LC50,DLD-1; [1],> 100 µM
same,IC (total growth inhibition (TGI)),DLD-1; [3],67.6 µM
same,GI50,Colo 205; [2],17.8 µM
same,CC50,Colo 205; [1],77.6 µM
same,IC (total growth inhibition (TGI)),Colo 205; [3],37.2 µM
